Test results from patent US4666907A, “Phenothiazine and derivatives and analogs and use as leukotriene biosynthesis inhibitors” (Merck Frosst Canada, Inc., priority 1986, dated 1987).

Tests used:
asthmatic rats = experiment: Asthmatic rat assay (duration of dyspnoea after egg albumin aerosol); format: in vivo; conditions: po; for inhibition in vivo at 0.5 mg/kg: 0.5 mg/kg p.o.; for inhibition in vivo at 3 mg/kg: 3 mg/kg p.o.
Text: Rats were obtained from an inbred line of asthmatic rats. Both female and male rats from 200 to 300 g were used.
Egg albumin (EA), grade V, crystallized and lyophilized, was obtained from Sigma Chemical Co., St. Louis. Bordetella pertussis vaccine, containing 30×10^9 killed bacteria per ml was obtained from the Institut Armand-Frappier, Laval des Rapides, Quebec. Aluminum hydroxide was obtained from the Regeis Chemical Company, Chicago.
The challenge and subsequent respiratory recordings were carried out in a clear plastic box with internal dimensions 10×6×4 inches. The top of the box was removable; in use, it was held firmly in place by four clamps and an airtight seal was maintained by a soft rubber gasket. […] A Fleisch No. 0000 pneumotachograph was inserted into one end of the box and coupled to a Grass volumetric pressure transducer (PT5-A) which was then connected to a Beckman Type R Dynograph through appropriate couplers. While aerosilizing the antigen, the outlets were open and the pneumotachograph was isolated from the chamber. The outlets were closed and the pneumotachograph and the chamber were connected during the recording or the respiratory patterns. For challenge, 2 ml of a 3% solution of antigen in saline was placed into each nebulizer and the aerosol was generated with air from a small Potter diaphragm pump operating at 10 psi and a flow of 8 liters/minutes.
Rats were sensitized by injection (s.c.) 1 ml of a suspension containing 1 mg EA and 200 mg aluminum hydroxide in saline. Simultaneously, they received an injection (i.p.) of 0.5 ml of B. pertussis vaccine. They were used between days 14 and 18 postsensitization. In order to eliminate the serotonin component of the response, rats were pretreated intravenously 5 minutes prior to aerosol challenge with […] methylserzide. Rats were then exposed to an aerosol of 3% EA in saline for exactly 1 minute, then their respiratory profiles were recorded for a further 25-30 minutes. The duration of continuous dyspnoea was measured from the respiratory recordings.
Compounds were generally administered either intraperitoneally 1 hour prior to challenge or orally 11/2 hours prior to challenge. They were either dissolved in dimethylsulfoxide or suspended in 0.1% methocel and 0.5% Tween 80. The volume injected has 2 ml kg^-1 (intraperitoneally) or 10 ml kg^-1 (orally). Prior to oral treatment rats were starved overnight. Their activity was determined in terms of their ability to decrease the duration of symptoms of dyspnoea in comparison with a group of vehicle-treated controls. Usually, a compound was evaluated at a series of doses and an ED50 was determined. This was defined as the dose (mg/kg) which would inhibit the duration of symptoms by 50%.

[1] = test system: PAF-induced hyperalgesia in Sprague-Dawley rats; experiment: PAF-induced hyperalgesia assay (vocalization threshold, rat paw); format: in vivo; conditions: po, read-out: PAF Induced Hyperalgesia Assay % inhibition; for responders at 1 mg/kg: 1 mg/kg p.o.; for responders at 3 mg/kg: 3 mg/kg p.o.
Experimental: Female Sprague-Dawley rats, 35-40 g were fasted overnight. Platelet activating factor, PAF, (L-lecithin B-acetyl O-alkyl) 1 μg/0.1 ml was given by subplantar injection in the rat paw. The compounds to be evaluated were homogenized in aqueous Vehicle (0.9% benzyl alcohol, 0.5% Tween 80 and 0.4% methylcellulose) and administered orally in a volume of 0.1 ml, 30 minutes prior to PAF.
Animals were tested 1, 2, 3 and 4 hours after PAF administration. The vocalization threshold, defined as the pressure (mm Hg) needed to evoke a squeak response, was recorded for both the injected and contralateral paw. No animal was subjected to pressure greater than 60 mm Hg. Hyperalgesia is defined as a decrease in vocalization threshold as compared to a normal paw. Percent inhibition of hyperalgesia was calculated as the proportion of animals with vocalization thresholds greater than 200% of controls.

Compound: COc1ccc2c(c1)Sc1c(cc(OC)c(OC(C)=O)c1Br)N2C(C)=O
- inhibition in vivo at 0.5 mg/kg (asthmatic rats): 58%
- responders at 0.03 mg/kg ([1]; 0.03 mg/kg p.o.): 60%

Compound: O=S1(=O)c2ccccc2Nc2ccc(O)c(Cl)c21
- inhibition in vivo at 1.5 mg/kg (asthmatic rats; 1.5 mg/kg p.o.): 59%
- responders at 1.2 mg/kg ([1]; 1.2 mg/kg p.o.): 50%

Compound: COc1ccc2c(c1Cl)Sc1ccccc1N2C [drawing 64]
- inhibition in vivo at 0.2 mg/kg (asthmatic rats; 0.2 mg/kg p.o.): 50%
- responders at 0.016 mg/kg ([1]; 0.016 mg/kg p.o.): 50%

Compound: COc1ccc2c(c1)Sc1cc(C)ccc1N2C
- inhibition in vivo at 3 mg/kg (asthmatic rats): 58%
- responders at 1 mg/kg [1]: 30%

Compound: O=S1(=O)c2ccccc2Nc2ccc(O)cc21
- inhibition in vivo at 3 mg/kg (asthmatic rats): 70%
- responders at 3 mg/kg [1]: 60%

Compound: c1ccc2c(c1)Nc1ccccc1S2 [drawing 61]
- inhibition in vivo at 0.5 mg/kg (asthmatic rats): 53%
- responders at 3 mg/kg [1]: 50%

Compound: CC(C)C(=O)Oc1ccc2c(c1Cl)Sc1ccccc1N2C [drawing 66]
- inhibition in vivo at 3 mg/kg (asthmatic rats): 35%
- responders at 1 mg/kg [1]: 70%
